Test results from patent US20260217743A1, “ETHER OF PHOSPHATIDYLCHOLINE AND PHOSPHATIDYLETHANOLAMINE, THEIR LYSO-FORMS AND MIXTURE THEREOF FOR USE IN THE TREATMENT OF A DISEASE OR DISORDER CAUSED BY A DEFICIENCY IN PLASMALOGENS” (Baker Heart and Diabetes Institute, priority 2023, published 2026).

Key:
[1] = system: RAW 264.7 cells; test: LPC(O)/LPE(O) supplementation with different SN1 compositions in RAW 264.7 cells, PE(P) level and composition; type: cell-based, mouse; details: 20 μM, 24 hours
Description: A mouse macrophage cell line, RAW 264.7 was used for this study. The cells were cultured at 37° C. with 5% CO2 in Roswell Park Memorial Institute (RPMI) 1640 medium containing L-glutamine with 1% sodium pyruvate (Gibco, USA) and 10% fetal bovine serum (Gibco, USA). The cells were passaged every week and the media replenished every two to three days until passage 30, at which point these cells were discarded. The cells were seeded in a 12-well plate at a concentration of 300,000 cells/ml of media and allowed to grow until they reached 80% confluency.
To assess the incorporation of plasmalogen precursors into cellular plasmalogens, cells were supplemented with compounds with different SN1 compositions, i.e., varying proportions of O-16:0, O-18:0, and O-18:1 of LPC(O) or LPE(O) at a concentration of 20 μM (Table 14). The plasmalogen precursors, LPC(O), and LPE(O), were dissolved in chloroform:methanol (2:1), evaporated under a stream of nitrogen gas at 40° C., and then reconstituted in RPMI medium with 2% bovine serum albumin (Sigma-Aldrich, USA). The control treatment for the cells consisted of RPMI with 2% bovine serum albumin. Once prepared, the media containing the precursors were vortexed and sonicated in an ultrasonic water bath (Soniclean, Adelaide, SA, Australia) for 15 minutes.
Lipids were extracted from cells using the butanol-methanol method, following established protocols. […] These vials were then frozen at −80° C. until they were ready for mass spectrometry analysis.
A targeted lipidomic approach using LC-MS/MS, following a previously published protocol (Huynh, et al., “High-Throughput Plasma Lipidomics: Detailed Mapping of the Associations with Cardiometabolic Risk Factors,” Cell Chem. Biol., 2019 Jan. 17; 26(1):71-84.e4, doi: 10.1016/j.chembiol.2018.10.008), was utilised for the samples from this study. […] Multiple lipid species belonging to different lipid classes including phosphatidylcholine (PC), alkylphosphatidylcholine [PC(O)], alkenylphosphatidylcholine [PC(P)], phosphatidylethanolamine (PE), alkylphosphatidylethanolamine [PE(O)], alkenylphosphatidylethanolamine [PE(P)] or PE plasmalogen, lysophosphatidylcholine (LPC), lysoalkylphosphatidylcholine [LPC(O)], lysoalkenylphosphatidylcholine [LPC(P)], lysophosphatidylethanolamine (LPE), lysoalkylphosphatidylethanolamine [LPE(O)], lysoalkenylphosphatidylethanolamine [LPE(P)], triacylglycerol (TG) and alkyldiacylglycerol [TG(O)] were measured. The lipid species measured in this study are listed in Supplementary Table 1, which is included at the end of this Example. […]
For data processing, vendor software Qualitative Analysis B.07.00 and QQQ Quantitative Analysis B.10.0.0 were utilized. Relative quantification of lipid species was determined by comparing them to the corresponding internal standards. […]

[2] = system: 3T3-L1 cells; test: LPC(O)/LPE(O) supplementation with different SN1 compositions in 3T3-L1 cells, PE(P) level and composition; type: cell-based, mouse; details: 20 μM, 24 hours
Description: The method employed in this study was the same as described in example 5, with the exception of the cell line and culture medium used. For this study, a mouse fibroblast/pre-adipocyte cell line, 3T3-L1, was utilised and cultured in Dulbecco's Modified Eagle Medium (DMEM) (Gibco, USA), supplemented with 1% sodium pyruvate (Gibco, USA) and 10% newborn calf serum (Gibco, New Zealand).

Compound | efficacy in elevating the endogenous PE(P) level [1] | cellular PE(P) levels [2]
CCCCCCCCCCCCCCCCOC[C@@H](O)COP(=O)(O)OCCN [LPE(O-16:0) 100%] | equal effectiveness | 
CCCCCCCC/C=C\CCCCCCCCOC[C@@H](O)COP(=O)(O)OCCN [LPE(O-18:1) 100%] | comparatively less effective | appeared to reduce these levels
CCCCCCCCCCCCCCCCCCOC[C@@H](O)COP(=O)(O)OCCN [LPE(O-18:0) 100%] | equal effectiveness | 
CCCCCCCCCCCCCCCCOC[C@@H](O)COP(=O)([O-])OCC[N+](C)(C)C [LPC(O-16:0) 100%] | greater efficacy | 
